Measurements published in the supplement of paper PMC10307832.

Assays:
Metformin + Trametinib = compound: CN(C)C(=N)NC(=N)N [Metformin] + CC(=O)Nc1cccc(-n2c(=O)n(C3CC3)c(=O)c3c(Nc4ccc(I)cc4F)n(C)c(=O)c(C)c32)c1 [Trametinib] (partner 0.02 µM); assay: relative viability (nuclei count vs DMSO), 5 days (fraction); higher = more cells survive
Outline: (§1)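 One day after seeding in 1536-well plates, lung cancer cell lines were dosed by pin tool. Dosing was either single-drug or a fixed anchor-drug dose plus five library-drug doses (not always all listed) in √10 steps. After 5 days, nuclei were stained in one fix-and-stain step and counted on 4× images, and relative viability is the nuclei count of treated wells over that of vehicle wells, given as the median of duplicate plates.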

Apatinib + Dasatinib = compound: N#CC1(c2ccc(NC(=O)c3cccnc3NCc3ccncc3)cc2)CCCC1 [Apatinib] + Cc1nc(Nc2ncc(C(=O)Nc3c(C)cccc3Cl)s2)cc(N2CCN(CCO)CC2)n1 [Dasatinib] (partner 0.075 µM); assay: as above
Outline: as §1

| Cell Line | relative viability (Metformin + Trametinib; first compound 10 µM) | relative viability (Metformin + Trametinib; first compound 31.62 µM) | relative viability (Metformin + Trametinib; first compound 100 µM) | relative viability (Metformin + Trametinib; first compound 316.23 µM) | relative viability (Metformin + Trametinib; first compound 1000 µM) | relative viability (Apatinib + Dasatinib; first compound 0.08 µM) | relative viability (Apatinib + Dasatinib; first compound 0.253 µM) | relative viability (Apatinib + Dasatinib; first compound 0.8 µM) | relative viability (Apatinib + Dasatinib; first compound 2.53 µM) | relative viability (Apatinib + Dasatinib; first compound 8 µM) |
| --- | --- | --- | --- | --- | --- | --- | --- | --- | --- | --- |
| NCI-H2126 | 0.517 | 0.538 | 0.563 | 0.504 | 0.587 | 0.584 | 0.514 | 0.52 | 0.488 | 0.446 |
| NCI-H2228 | 0.699 | 0.681 | 0.398 | 0.434 | 0.553 | 0.538 | 0.533 | 0.518 | 0.387 | 0.295 |
| NCI-H520 | 0.798 | 0.622 | 0.739 | 0.505 | 0.762 | 0.228 | 0.205 | 0.176 | 0.203 | 0.203 |
| HCC-366 | 0.301 | 0.289 | 0.23 | 0.279 | 0.314 | 0.661 | 0.559 | 0.565 | 0.647 | 0.601 |
| EMC-BAC-2 | 0.751 | 0.889 | – | 0.73 | 0.829 | 0.32 | 0.428 | 0.349 | 0.282 | 0.293 |
| NCI-H647 | 0.479 | 0.598 | 0.498 | 0.482 | 0.556 | 0.506 | 0.253 | 0.175 | 0.169 | 0.152 |
| NCI-H1944 | 0.37 | 0.412 | 0.38 | 0.365 | 0.415 | 0.247 | 0.204 | 0.208 | 0.254 | 0.249 |
| NCI-H1395 | 0.945 | 1.05 | 0.896 | 0.974 | 0.756 | 0.412 | 0.399 | 0.367 | 0.349 | 0.378 |
| SK-MES-1 | 0.564 | 0.574 | 0.595 | 0.57 | 0.616 | 0.368 | 0.323 | 0.38 | 0.348 | 0.307 |
| EPLC-272H | 0.341 | 0.316 | 0.291 | 0.311 | 0.337 | 0.382 | – | 0.358 | 0.355 | 0.335 |
| NCI-H2087 | 0.232 | 0.222 | 0.18 | 0.152 | 0.254 | 0.929 | 0.747 | 0.763 | 0.685 | 0.524 |
| PC-3 [JPC-3] | 0.683 | 0.717 | – | 0.706 | 0.68 | 0.988 | 0.943 | 0.88 | 0.83 | 0.879 |
| NCI-H661 | 0.54 | 0.643 | 0.575 | 0.527 | 0.586 | 1.12 | 0.957 | 0.803 | 0.702 | 0.708 |
| NCI-H1563 | – | – | – | – | – | 0.444 | 0.41 | 0.406 | 0.475 | 0.451 |
| NCI-H441 | – | 0.575 | 0.573 | 0.442 | 0.639 | 0.646 | 0.486 | 0.511 | 0.566 | 0.449 |
| NCI-H1623 | – | – | – | – | – | 0.438 | 0.598 | 0.493 | 0.545 | 0.595 |
| LCLC-97TM1 | – | 0.207 | 0.247 | 0.174 | 0.229 | 0.824 | 0.763 | 0.767 | 0.711 | 0.504 |
| NCI-H1648 | – | 0.553 | 0.68 | 0.53 | 0.73 | – | – | – | – | – |

| Cell Line | relative viability (Metformin + Trametinib; first compound 10 µM) | relative viability (Metformin + Trametinib; first compound 31.62 µM) | relative viability (Metformin + Trametinib; first compound 100 µM) | relative viability (Metformin + Trametinib; first compound 316.23 µM) | relative viability (Metformin + Trametinib; first compound 1000 µM) | relative viability (Apatinib + Dasatinib; first compound 0.08 µM) | relative viability (Apatinib + Dasatinib; first compound 0.253 µM) | relative viability (Apatinib + Dasatinib; first compound 0.8 µM) | relative viability (Apatinib + Dasatinib; first compound 2.53 µM) | relative viability (Apatinib + Dasatinib; first compound 8 µM) |
| --- | --- | --- | --- | --- | --- | --- | --- | --- | --- | --- |
| RERF-LC-KJ | 0.774 | 0.794 | 0.775 | 0.676 | 0.707 | 0.859 | 0.897 | 0.754 | 0.615 | 0.52 |
| NCI-H2170 | 0.789 | 0.779 | 0.903 | 0.869 | 0.945 | 0.551 | 0.447 | 0.489 | 0.464 | 0.572 |
| NCI-H1793 | 0.432 | 0.454 | 0.413 | 0.45 | 0.507 | 0.427 | 0.345 | 0.337 | 0.37 | 0.3 |
| NCI-H2405 | – | 0.744 | 0.635 | 0.688 | 0.555 | 0.215 | 0.207 | 0.202 | 0.159 | 0.192 |
| NCI-H1792 | 0.566 | 0.483 | 0.567 | 0.431 | 0.433 | 0.965 | 0.789 | 0.763 | 0.573 | 0.512 |
| UMC-11 | 0.552 | 0.687 | 0.727 | 0.77 | 0.572 | 0.518 | 0.515 | 0.42 | 0.442 | 0.394 |
| NCI-H727 | 0.404 | 0.369 | 0.41 | – | 0.349 | 0.374 | 0.372 | 0.346 | 0.29 | 0.42 |
| NCI-H650 | 1.09 | 1 | 1.06 | 0.817 | 0.94 | 0.37 | 0.435 | 0.483 | 0.444 | 0.403 |
| NCI-H838 | 0.557 | 0.572 | 0.541 | 0.525 | 0.579 | 0.353 | 0.303 | 0.272 | 0.328 | 0.268 |
| SK-LU-1 | 0.452 | 0.453 | 0.458 | 0.382 | 0.442 | 0.182 | 0.207 | 0.184 | 0.167 | 0.175 |
| SW 1573 | 0.67 | 0.559 | 0.522 | 0.211 | 0.367 | 0.454 | 0.624 | 0.393 | 0.351 | 0.458 |
| LK-2 | 0.829 | 1.23 | 1.54 | 1.08 | 1.26 | 0.39 | 0.258 | 0.227 | 0.24 | 0.257 |
| NCI-H1993 | 0.477 | 0.634 | 0.497 | 0.425 | 0.611 | 0.63 | 0.663 | 0.558 | 0.538 | 0.503 |
| NCI-H1437 | 0.638 | 0.703 | 0.631 | 0.701 | 0.627 | 0.28 | 0.417 | 0.373 | 0.266 | 0.157 |
| H3255 | 0.587 | 0.789 | 0.648 | 0.57 | 0.508 | 0.356 | 0.326 | 0.344 | 0.255 | 0.366 |
| NCI-H322M | 0.518 | 0.487 | 0.506 | 0.561 | 0.529 | 0.253 | 0.229 | 0.245 | 0.256 | 0.247 |
| LCLC-103H | 0.72 | 0.672 | 0.745 | 0.696 | 0.684 | 0.436 | 0.402 | 0.458 | 0.43 | 0.344 |
